{
  "source": "patent US20250282754A1",
  "about": "“BICYCLIC COMPOUNDS AND THEIR USE AS PEST CONTROL AGENTS” (Pl Industries Ltd., priority 2022, published 2025)",
  "system": "Myzus persicae",
  "assay": "Myzus persicae leaf dip test (capsicum leaves, third instar nymphs)",
  "type": "in vivo",
  "details": "foliar, dead and moribund third instar nymphs 72 h after release, compared to untreated controls, read-out: percent mortality",
  "protocol": "The leaf dip method was used for testing, wherein the required quantity of the compound was weighed and dissolved in a tube containing a solvent solution. The tube was put on a vortex at 2000 rpm for proper mixing and then diluted with a 0.01% Triton-X solution to the desired test concentration. Capsicum leaves were dipped in the compound solution for 10 seconds, shade dried for 20 min and then placed, with the abaxial side of the leaf up, in single cells of a bio-assay tray containing 4 ml of a solidified 1% agar-agar solution. Known numbers of third instar nymphs of Myzus persicae, collected in petri plates, were released into the cell with the treated leaf and the cell was covered with a perforated lid for better aeration. The trays were kept in a plant growth chamber at a temperature of 25° C. and a relative humidity of 70%. Observations on dead, moribund and alive nymphs were recorded 72 h after the release. Percent mortality was calculated by combining dead and moribund nymphs and comparing the result with the one of the untreated controls. The compounds",
  "data": [
    {"smiles": "CCS(=O)(CC)=Nc1cccc2nn(-c3cncc(F)c3)cc12", "note": "[Compound 89]", "values": [
      {"measurement": "mortality at 300 ppm", "value": "≥ 70", "unit": "%"}
    ]},
    {"smiles": "CC(C)S(C)(=O)=Nc1cccc2nn(-c3cncc(F)c3)cc12", "note": "(stereo not shown) [Compound 90]", "values": [
      {"measurement": "mortality at 300 ppm", "value": "≥ 70", "unit": "%"}
    ]},
    {"smiles": "CC(C)S(=O)(CCC(F)(F)F)=Nc1ccc2nn(-c3cccnc3)cc2c1", "note": "(stereo not shown) [Compound 99]", "values": [
      {"measurement": "mortality at 300 ppm", "value": "≥ 70", "unit": "%"}
    ]},
    {"smiles": "CC(C)S(=O)(CCC(F)(F)F)=Nc1cccc2nn(-c3cccnc3)cc12", "note": "(stereo not shown) [Compound 102]", "values": [
      {"measurement": "mortality at 300 ppm", "value": "≥ 70", "unit": "%"}
    ]},
    {"smiles": "CCCS(=O)(CC)=Nc1cccc2nn(-c3cccnc3)cc12", "note": "(stereo not shown) [Compound 136]", "values": [
      {"measurement": "mortality at 300 ppm", "value": "≥ 70", "unit": "%"}
    ]},
    {"smiles": "CCCS(=O)(CC)=Nc1cccc2nn(-c3cncc(F)c3)cc12", "note": "(stereo not shown) [Compound 138]", "values": [
      {"measurement": "mortality at 300 ppm", "value": "≥ 70", "unit": "%"}
    ]},
    {"smiles": "CC(C)S(C)(=O)=Nc1cnc2nn(-c3cccnc3)cc2c1", "note": "(stereo not shown) [Compound 156]", "values": [
      {"measurement": "mortality at 300 ppm", "value": "≥ 70", "unit": "%"}
    ]},
    {"smiles": "Cc1cncc(-n2cc3cc(N=S(C)(C)=O)ccc3n2)c1", "note": "[Compound 168]", "values": [
      {"measurement": "mortality at 300 ppm", "value": "≥ 70", "unit": "%"}
    ]},
    {"smiles": "CCCS(C)(=O)=Nc1ccc2nn(-c3cncnc3)c(Cl)c2c1", "note": "(stereo not shown) [Compound 180]", "values": [
      {"measurement": "mortality at 300 ppm", "value": "≥ 70", "unit": "%"}
    ]},
    {"smiles": "CS(C)(=O)=Nc1ccc(Cl)c2nn(-c3cccnc3)cc12", "note": "[Compound 217]", "values": [
      {"measurement": "mortality at 300 ppm", "value": "≥ 70", "unit": "%"}
    ]},
    {"smiles": "CCCS(=O)(=Nc1ccc2nn(-c3cccnc3)cc2c1)C(C)C", "note": "(stereo not shown) [Compound 256]", "values": [
      {"measurement": "mortality at 300 ppm", "value": "≥ 70", "unit": "%"}
    ]},
    {"smiles": "CCCCS(=O)(=NCC)c1ccc2nn(-c3cccnc3)cc2c1", "note": "(stereo not shown) [Compound 390]", "values": [
      {"measurement": "mortality at 300 ppm", "value": "≥ 70", "unit": "%"}
    ]},
    {"smiles": "CCS(=O)(=NC(C)=O)c1ccc2nn(-c3cncnc3)cc2c1", "note": "(stereo not shown) [Compound 456]", "values": [
      {"measurement": "mortality at 300 ppm", "value": "≥ 70", "unit": "%"}
    ]},
    {"smiles": "CCS(=N)(=O)c1ccc2nn(-c3cncc(F)c3)cc2c1", "note": "(stereo not shown) [Compound 460, ethyl(2-(5-fluoropyridin-3-yl)-2H-indazol-5-yl)(imino)-λ^6-sulfanone]", "values": [
      {"measurement": "mortality at 300 ppm", "value": "≥ 70", "unit": "%"}
    ]},
    {"smiles": "CCCS(=O)(=NC(C)=O)c1ccc2nn(-c3cncc(F)c3)cc2c1", "note": "(stereo not shown) [Compound 483]", "values": [
      {"measurement": "mortality at 300 ppm", "value": "≥ 70", "unit": "%"}
    ]},
    {"smiles": "CC1(CS(=N)(=O)c2ccc3nn(-c4cncc(F)c4)cc3c2)COC1", "note": "(stereo not shown) [Compound 484, (2-(5-fluoropyridin-3-yl)-2H-indazol-5-yl)(imino)((3-methyloxetan-3-yl)methyl)-λ^6-sulfanone]", "values": [
      {"measurement": "mortality at 300 ppm", "value": "≥ 70", "unit": "%"}
    ]},
    {"smiles": "CCC(CC)S(=O)(=NC(C)=O)c1ccc2nn(-c3cncc(F)c3)cc2c1", "note": "(stereo not shown) [Compound 485]", "values": [
      {"measurement": "mortality at 300 ppm", "value": "≥ 70", "unit": "%"}
    ]},
    {"smiles": "CCC(C)S(=O)(=NC(C)=O)c1ccc2nn(-c3cncc(F)c3)cc2c1", "note": "(stereo not shown) [Compound 486]", "values": [
      {"measurement": "mortality at 300 ppm", "value": "≥ 70", "unit": "%"}
    ]},
    {"smiles": "CC(=O)N=S(=O)(CCCF)c1ccc2nn(-c3cncc(F)c3)cc2c1", "note": "(stereo not shown) [Compound 487]", "values": [
      {"measurement": "mortality at 300 ppm", "value": "≥ 70", "unit": "%"}
    ]},
    {"smiles": "N=S(=O)(c1ccc2nn(-c3cncc(F)c3)cc2c1)C1CCC1", "note": "(stereo not shown) [Compound 488, cyclobutyl(2-(5-fluoropyridin-3-yl)-2H-indazol-5-yl)(imino)-λ^6-sulfanone]", "values": [
      {"measurement": "mortality at 300 ppm", "value": "≥ 70", "unit": "%"}
    ]},
    {"smiles": "CCN=S(=O)(c1ccc2nn(-c3cncc(F)c3)cc2c1)C(C)CC", "note": "(stereo not shown) [Compound 490]", "values": [
      {"measurement": "mortality at 300 ppm", "value": "≥ 70", "unit": "%"}
    ]},
    {"smiles": "CCN=S(=O)(CCCF)c1ccc2nn(-c3cncc(F)c3)cc2c1", "note": "(stereo not shown) [Compound 491]", "values": [
      {"measurement": "mortality at 300 ppm", "value": "≥ 70", "unit": "%"}
    ]},
    {"smiles": "CCN=S(=O)(c1ccc2nn(-c3cncc(F)c3)cc2c1)C(CC)CC", "note": "(stereo not shown) [Compound 492]", "values": [
      {"measurement": "mortality at 300 ppm", "value": "≥ 70", "unit": "%"}
    ]},
    {"smiles": "N=S(=O)(c1ccc2nn(-c3cccnc3)cc2c1)C1CCCC1", "note": "(stereo not shown) [Compound 558, cyclopentyl(imino)(2-(pyridin-3-yl)-2H-indazol-5-yl)-λ^6-sulfanone]", "values": [
      {"measurement": "mortality at 300 ppm", "value": "≥ 70", "unit": "%"}
    ]},
    {"smiles": "N=S(=O)(c1ccc2nn(-c3cccnc3)cc2c1)C1CCCCC1", "note": "(stereo not shown) [Compound 560, cyclohexyl(imino)(2-(pyridin-3-yl)-2H-indazol-5-yl)-λ^6-sulfanone]", "values": [
      {"measurement": "mortality at 300 ppm", "value": "≥ 70", "unit": "%"}
    ]},
    {"smiles": "N#CCCCS(=N)(=O)c1ccc2nn(-c3cccnc3)cc2c1", "note": "(stereo not shown) [Compound 564, 4-(2-(pyridin-3-yl)-2H-indazole-5-sulfonimidoyl)butanenitrile]", "values": [
      {"measurement": "mortality at 300 ppm", "value": "≥ 70", "unit": "%"}
    ]},
    {"smiles": "CCN=S(=O)(c1ccc2nn(-c3cccnc3)cc2c1)C1CCC1", "note": "(stereo not shown) [Compound 567]", "values": [
      {"measurement": "mortality at 300 ppm", "value": "≥ 70", "unit": "%"}
    ]},
    {"smiles": "N=S(=O)(CC1CCCO1)c1ccc2nn(-c3cccnc3)cc2c1", "note": "(stereo not shown) [Compound 569, imino(2-(pyridin-3-yl)-2H-indazol-5-yl)((tetrahydrofuran-2-yl)methyl)-λ^6-sulfanone]", "values": [
      {"measurement": "mortality at 300 ppm", "value": "≥ 70", "unit": "%"}
    ]}
  ]
}
